These results are taken from patent US20230226074A1, “METHODS OF USE FOR PYRIMIDINES AS FERROPORTIN INHIBITORS” (Global Blood Therapeutics, Inc., priority 2020, published 2023).

The test addresses T1, human ferroportin (Homo sapiens, UniProt Q9NP59).
T1 construct: luciferase reporter (probably NanoLuc, inferred from the Nano-Glo Luciferase Assay System read-out); expressed in transfected cells; host or cells: CHO cells, stably transfected, expression induced with doxycycline
T1 sequence (Q9NP59 1-571): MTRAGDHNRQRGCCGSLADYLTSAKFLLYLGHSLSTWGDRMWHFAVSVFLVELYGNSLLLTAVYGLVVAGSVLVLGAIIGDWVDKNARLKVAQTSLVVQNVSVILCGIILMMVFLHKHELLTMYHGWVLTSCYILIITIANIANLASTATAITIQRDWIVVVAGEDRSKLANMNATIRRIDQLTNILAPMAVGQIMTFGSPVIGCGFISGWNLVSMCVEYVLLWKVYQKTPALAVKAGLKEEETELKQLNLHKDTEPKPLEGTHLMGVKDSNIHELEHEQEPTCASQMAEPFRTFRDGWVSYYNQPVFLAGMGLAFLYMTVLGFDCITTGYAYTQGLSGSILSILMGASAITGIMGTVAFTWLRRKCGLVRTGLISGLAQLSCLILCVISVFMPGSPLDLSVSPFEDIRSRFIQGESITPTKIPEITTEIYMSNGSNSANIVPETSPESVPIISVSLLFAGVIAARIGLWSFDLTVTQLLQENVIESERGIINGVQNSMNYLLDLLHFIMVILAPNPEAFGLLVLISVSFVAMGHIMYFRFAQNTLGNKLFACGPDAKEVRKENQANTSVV
Briefly: In-vitro ferroportin internalization assay (luciferase reporter). The test is classed as cell-based. Particulars: average pEC50; stably-transfected CHO cell line expressing human ferroportin tagged to a luciferase reporter; 6 h incubation with test compound. On the procedure:
The protocol for this assay is generally as described in WO2018/128828, incorporated herein by reference in its entirety. Functional internalization of ferroportin protein was measured using a stably-transfected CHO cell line expressing the human ferroportin tagged to a luciferase reporter. Cells were plated for 24 h in the presence of ferric ammonium citrate (FAC). Ferroportin protein expression was induced with doxycycline for 24 h. The next day, the compounds were added. Test compounds were dissolved in DMSO. Cells were incubated with the test compounds for 6 h, and subsequently luciferase activity was measured using the Nano-Glo Luciferase Assay System and Glomax (Promega, Madison, Wis.). The average pEC50 was determined for the test compounds.
On the technique in general: A reporter such as luciferase makes a cellular process visible.
Take `COc1ccc(NC(=O)[C@@H](C(C)C)N(C)c2nc(-c3ccccn3)nc3c2CCC3)cn1` [Compound 315, (2R)-N-(6-methoxypyridin-3-yl)-3-methyl-2-{methyl[2-(pyridin-2-yl)-5H,6H,7H-cyclopenta[d]pyrimidin-4-yl]amino}butanamide]: the pEC50 (commonly −log10 of the EC50, conventionally taken in molar units) is 7.3.

On to `COCCNc1nc(-c2ccccn2)nc2sc(C)c(C)c12` [Compound 241, N-(2-methoxyethyl)-5,6-dimethyl-2-(pyridin-2-yl)thieno[2,3-d]pyrimidin-4-amine], for which the pEC50 came out at 6.3.

`CN1CCN(c2nc(-c3ccccn3)nc3sc(-c4ccccc4)cc23)CC1` [Compound 200, 1-methyl-4-[6-phenyl-2-(pyridin-2-yl)thieno[2,3-d]pyrimidin-4-yl]piperazine] came in with a negative-log EC50 (pEC50) of 5.3.

On to `O=C1C(Nc2cc(C(F)(F)F)nc(-c3ccccn3)n2)CN1c1ccc(F)cc1` (stereo not shown) [Compound 227, 1-(4-fluorophenyl)-3-{[2-(pyridin-2-yl)-6-(trifluoromethyl)pyrimidin-4-yl]amino}azetidin-2-one], for which the pEC50 was 4.8.

For `CN(c1nc(-c2ccccn2)nc2c1CCC2)C1CCc2ccccc21` (stereo not shown) [Compound 185, N-(2,3-dihydro-1H-inden-1-yl)-N-methyl-2-(pyridin-2-yl)-5H,6H,7H-cyclopenta[d]pyrimidin-4-amine], the pEC50 came to 6.3.

For `CN(CC(=O)NC(C)(C)C)c1nc(-c2cccnn2)nc2c1CCC2` [Compound 175, N-tert-butyl-2-{methyl[2-(pyridazin-3-yl)-5H,6H,7H-cyclopenta[d]pyrimidin-4-yl]amino}acetamide], the pEC50 is below 5.0.

Turning to `Cc1sc2nc(-c3ccccn3)nc(NCCNc3ccccn3)c2c1C` [Compound 243, N2-[5,6-dimethyl-2-(pyridin-2-yl)thieno[2,3-d]pyrimidin-4-yl]-N1-(pyridin-2-yl)ethane-1,2-diamine], the pEC50 was 6.4.

`COCCN(CCOC)c1nc(-c2ccccn2)nc2scc(-c3ccccc3)c12` [Compound 211, N,N-bis(2-methoxyethyl)-5-phenyl-2-(pyridin-2-yl)thieno[2,3-d]pyrimidin-4-amine] registered a pEC50 of 6.7.

On to `CCCNC(=O)CNc1nc(-c2ccccn2)nc2scc(-c3ccccc3)c12` [Compound 219, 2-{[5-phenyl-2-(pyridin-2-yl)thieno[2,3-d]pyrimidin-4-yl]amino}-N-propylacetamide], for which the pEC50 is 6.

In the case of `CNC(=O)CCN(C)c1nc(-c2ccccn2)nc2scc(-c3ccccc3)c12` [Compound 216, N-methyl-3-{methyl[5-phenyl-2-(pyridin-2-yl)thieno[2,3-d]pyrimidin-4-yl]amino}propanamide], the pEC50 came out at 5.7.

`CCc1cc(NC2CN(c3ccccc3)C2=O)nc(-c2ccccn2)n1` (stereo not shown) [Compound 236, 3-{[6-ethyl-2-(pyridin-2-yl)pyrimidin-4-yl]amino}-1-phenylazetidin-2-one] had a pEC50 of 5.4.

Take `Cc1sc2nc(-c3ccccn3)nc(N(C)CC(=O)Nc3cccc(F)c3)c2c1C` [Compound 242, 2-{[5,6-dimethyl-2-(pyridin-2-yl)thieno[2,3-d]pyrimidin-4-yl](methyl)amino}-N-(3-fluorophenyl)acetamide]: the pEC50 is given as 7.

`CN(CC(=O)Nc1cccc(F)c1)c1nc(-c2ccccn2)nc2c1CCC2` [Compound 74, N-(3-fluorophenyl)-2-{methyl[2-(pyridin-2-yl)-5H,6H,7H-cyclopenta[d]pyrimidin-4-yl]amino}acetamide] yielded a pEC50 of 7.5.
